Source: ChEMBL document CHEMBL1268974, “Synthesis and antitumour activity of glycyrrhetinic acid derivatives” (Bioorg Med Chem, 2010)

Experiments:
Format in all cases: functional, cell-based
[1] = test system: 8505C; test: Cytotoxicity against human 8505C cells after 96 hrs by SRB assay
[2] = Cytotoxicity against human A253 cells after 96 hrs by SRB assay
[3] = test system: A2780; test: Cytotoxicity against human A2780 cells after 96 hrs by SRB assay
[4] = test system: A549; test: Cytotoxicity against human A549 cells after 96 hrs by SRB assay
[5] = test system: DLD-1; test: Cytotoxicity against human DLD1 cells after 96 hrs by SRB assay
[6] = Cytotoxicity against human Lipo cells after 96 hrs by SRB assay
[7] = test system: MCF7; test: Cytotoxicity against human MCF7 cells after 96 hrs by SRB assay
[8] = test system: SW-1736; test: Cytotoxicity against human SW1736 cells after 96 hrs by SRB assay
[9] = Cytotoxicity against human 518A2 cells after 96 hrs by SRB assay; details: 518A2, 96 h
[10] = test system: A-431; test: Cytotoxicity against human A431 cells after 96 hrs by SRB assay; details: A-431, 96 h
[11] = test system: FaDu; test: Cytotoxicity against human FADU cells after 96 hrs by SRB assay
[12] = test system: HCT-116; test: Cytotoxicity against human HCT116 cells after 96 hrs by SRB assay; details: HCT-116, 96 h
[13] = test system: HCT-8; test: Cytotoxicity against human HCT8 cells after 96 hrs by SRB assay; details: HCT-8, 96 h
[14] = test system: HT-29; test: Cytotoxicity against human HT-29 cells after 96 hrs by SRB assay; details: HT-29, 96 h
[15] = test system: SW480; test: Cytotoxicity against human SW480 cells after 96 hrs by SRB assay; details: SW480, 96 h

Row | SMILES | IC50 ([1]; Homo sapiens, 8505C, 96 h) | IC50 ([2]; Homo sapiens, A253, 96 h) | IC50 ([3]; Homo sapiens, A2780, 96 h) | IC50 ([4]; Homo sapiens, A549, 96 h) | IC50 ([5]; Homo sapiens, DLD-1, 96 h) | IC50 ([6]; Homo sapiens, Lipo, 96 h) | further results
1 | C[C@H](N)C(=O)O[C@H]1CC[C@]2(C)[C@H]3C(=O)C=C4[C@@H]5C[C@@](C)(C(=O)O)CC[C@]5(C)CC[C@@]4(C)[C@]3(C)CC[C@H]2C1(C)C | > 30 µM | > 30 µM | > 30000 nM | > 30 µM | > 30 µM | > 30 µM | 
2 | CC1(C)[C@@H](OC(=O)CN)CC[C@]2(C)[C@H]3C(=O)C=C4[C@@H]5C[C@@](C)(C(=O)O)CC[C@]5(C)CC[C@@]4(C)[C@]3(C)CC[C@@H]12 | > 30 µM | > 30 µM | > 30000 nM | > 30 µM | > 30 µM | > 30 µM | 
3 | CC1(C)[C@@H](OC(=O)CCN)CC[C@]2(C)[C@H]3C(=O)C=C4[C@@H]5C[C@@](C)(C(=O)OCc6ccccc6)CC[C@]5(C)CC[C@@]4(C)[C@]3(C)CC[C@@H]12 | 3.19 µM | 3.05 µM | 1730 nM | 2.76 µM | 4.54 µM | 3.25 µM | 
4 | COC(=O)[C@@]1(C)CC[C@]2(C)CC[C@]3(C)C(=CC(=O)[C@@H]4[C@@]5(C)CC[C@H](OC(=O)[C@H](C)N)C(C)(C)[C@@H]5CC[C@]43C)[C@@H]2C1 |  |  |  |  |  |  | IC50 ([1]; 8505c): 3.58 µM; IC50 ([2]; a253): 3.5 µM; IC50 ([3]; a2780): 2310 nM; IC50 ([4]; a549): 3.52 µM; IC50 ([5]; dld-1): 3.61 µM; IC50 ([6]; lipo): 3.52 µM; IC50 ([7]; mcf7): 3.89 µM; IC50 ([8]; sw-1736): 3.98 µM
5 | C[C@H](N)C(=O)O[C@H]1CC[C@]2(C)[C@H]3C(=O)C=C4[C@@H]5C[C@@](C)(C(=O)OCc6ccccc6)CC[C@]5(C)CC[C@@]4(C)[C@]3(C)CC[C@H]2C1(C)C | 3.1 µM | 3.49 µM | 2850 nM | 3.51 µM | 5.02 µM | 3.57 µM | 
6 | CC1(C)[C@@H](OC(=O)CN)CC[C@]2(C)[C@H]3C(=O)C=C4[C@@H]5C[C@@](C)(C(=O)OCc6ccccc6)CC[C@]5(C)CC[C@@]4(C)[C@]3(C)CC[C@@H]12 | 4.79 µM | 5.03 µM | 3540 nM | 5.07 µM | 4.54 µM | 4.81 µM | 
7 | CC1(C)[C@@H](OC(=O)CCN)CC[C@]2(C)[C@H]3C(=O)C=C4[C@@H]5C[C@@](C)(C(=O)O)CC[C@]5(C)CC[C@@]4(C)[C@]3(C)CC[C@@H]12 | > 30 µM | > 30 µM | > 30000 nM | > 30 µM | > 30 µM | > 30 µM | 
8 | COC(=O)[C@@]1(C)CC[C@]2(C)CC[C@]3(C)C(=CC(=O)[C@@H]4[C@@]5(C)CC[C@H](OC(=O)CN)C(C)(C)[C@@H]5CC[C@]43C)[C@@H]2C1 [listing 1 of 2 here] | 7.45 µM | 6.26 µM | 5990 nM | 6.42 µM | 8.59 µM | 7.54 µM | IC50 ([7]; Homo sapiens, MCF7, 96 h): 7.1 µM; IC50 ([8]; Homo sapiens, SW-1736, 96 h): 6.33 µM
9 | CC(C)OC(=O)[C@@]1(C)CC[C@]2(C)CC[C@]3(C)C(=CC(=O)[C@@H]4[C@@]5(C)CC[C@H](OC(=O)CN)C(C)(C)[C@@H]5CC[C@]43C)[C@@H]2C1 | 2.76 µM | 2.01 µM | 2240 nM | 2.65 µM | 2.54 µM | 2.74 µM | 
10 | CCOC(=O)[C@@]1(C)CC[C@]2(C)CC[C@]3(C)C(=CC(=O)[C@@H]4[C@@]5(C)CC[C@H](OC(=O)[C@@H](C)N)C(C)(C)[C@@H]5CC[C@]43C)[C@@H]2C1 | 4.43 µM | 2.55 µM | 3260 nM | 4.35 µM | 4.49 µM | 4.13 µM | IC50 [9]: 2760 nM; IC50 [10]: 2760 nM; IC50 [11]: 3.9 µM; IC50 [12]: 4.25 µM; IC50 [13]: 2420 nM; IC50 [14]: 4.38 µM; IC50 ([7]; Homo sapiens, MCF7, 96 h): 3.55 µM; IC50 ([8]; Homo sapiens, SW-1736, 96 h): 4.11 µM; IC50 [15]: 3.32 µM
11 | CCOC(=O)[C@@]1(C)CC[C@]2(C)CC[C@]3(C)C(=CC(=O)[C@@H]4[C@@]5(C)CC[C@H](OC(=O)CN)C(C)(C)[C@@H]5CC[C@]43C)[C@@H]2C1 | 5.32 µM | 3.59 µM | 3900 nM | 5.39 µM | 5.61 µM | 4.32 µM | 
12 | COC(=O)[C@@]1(C)CC[C@]2(C)CC[C@]3(C)C(=CC(=O)[C@@H]4[C@@]5(C)CC[C@H](OC(=O)CN)C(C)(C)[C@@H]5CC[C@]43C)[C@@H]2C1 [listing 2 of 2 here] |  |  |  |  |  |  | IC50 ([1]; 8505c): 5.71 µM; IC50 ([2]; a253): 5.5 µM; IC50 ([3]; a2780): 4320 nM; IC50 ([4]; a549): 5.54 µM; IC50 ([5]; dld-1): 6.42 µM; IC50 ([6]; lipo): 5.92 µM; IC50 ([7]; mcf7): 5.73 µM; IC50 ([8]; sw-1736): 5.62 µM
13 | COC(=O)[C@@]1(C)CC[C@]2(C)CC[C@]3(C)C(=CC(=O)[C@@H]4[C@@]5(C)CC[C@H](OC(=O)CCN)C(C)(C)[C@@H]5CC[C@]43C)[C@@H]2C1 [listing 1 of 2 here] | 2.55 µM | 2.5 µM | 1720 nM | 2.4 µM | 2.51 µM | 2.52 µM | IC50 ([7]; Homo sapiens, MCF7, 96 h): 2.5 µM; IC50 ([8]; Homo sapiens, SW-1736, 96 h): 1.82 µM
14 | CC(C)OC(=O)[C@@]1(C)CC[C@]2(C)CC[C@]3(C)C(=CC(=O)[C@@H]4[C@@]5(C)CC[C@H](OC(=O)[C@H](C)N)C(C)(C)[C@@H]5CC[C@]43C)[C@@H]2C1 | 3.49 µM | 3.51 µM | 2080 nM | 3.43 µM | 5.54 µM | 3.53 µM | IC50 [9]: 5090 nM; IC50 [10]: 3490 nM; IC50 [11]: 5.39 µM; IC50 [12]: 5.03 µM; IC50 [13]: 5130 nM; IC50 [14]: 4.6 µM; IC50 ([7]; Homo sapiens, MCF7, 96 h): 3.52 µM; IC50 ([8]; Homo sapiens, SW-1736, 96 h): 3.54 µM; IC50 [15]: 3.5 µM
15 | CCOC(=O)[C@@]1(C)CC[C@]2(C)CC[C@]3(C)C(=CC(=O)[C@@H]4[C@@]5(C)CC[C@H](OC(=O)[C@H](C)N)C(C)(C)[C@@H]5CC[C@]43C)[C@@H]2C1 | 3.87 µM | 2.33 µM | 2590 nM | 3.43 µM | 3.72 µM | 2.74 µM | IC50 [9]: 2720 nM; IC50 [10]: 2270 nM; IC50 [11]: 4.25 µM; IC50 [12]: 2.82 µM; IC50 [13]: 2210 nM; IC50 [14]: 2.5 µM; IC50 ([7]; Homo sapiens, MCF7, 96 h): 3.55 µM; IC50 ([8]; Homo sapiens, SW-1736, 96 h): 2.92 µM; IC50 [15]: 2.79 µM
16 | CCOC(=O)[C@@]1(C)CC[C@]2(C)CC[C@]3(C)C(=CC(=O)[C@@H]4[C@@]5(C)CC[C@H](OC(=O)CCN)C(C)(C)[C@@H]5CC[C@]43C)[C@@H]2C1 | 2.32 µM | 2.23 µM | 1770 nM | 2.18 µM | 2.74 µM | 2.38 µM | 
17 | COC(=O)[C@@]1(C)CC[C@]2(C)CC[C@]3(C)C(=CC(=O)[C@@H]4[C@@]5(C)CC[C@H](OC(=O)CCN)C(C)(C)[C@@H]5CC[C@]43C)[C@@H]2C1 [listing 2 of 2 here] |  |  |  |  |  |  | IC50 ([1]; 8505c): 2.51 µM; IC50 ([2]; a253): 2.51 µM; IC50 ([3]; a2780): 1560 nM; IC50 ([4]; a549): 1.61 µM; IC50 ([5]; dld-1): 3.52 µM; IC50 ([6]; lipo): 3.55 µM; IC50 ([7]; mcf7): 2.43 µM; IC50 ([8]; sw-1736): 2.48 µM
18 | CC(C)OC(=O)[C@@]1(C)CC[C@]2(C)CC[C@]3(C)C(=CC(=O)[C@@H]4[C@@]5(C)CC[C@H](OC(=O)CCN)C(C)(C)[C@@H]5CC[C@]43C)[C@@H]2C1 | 1.96 µM | 2.68 µM | 1310 nM | 1.78 µM | 3.52 µM | 3.49 µM | 
